Data from PMC12136037, “Type II kinase inhibitors that target Parkinson’s disease–associated LRRK2” (Science Advances, 2025).
Where “and” joins values, the source holds several entries; their conditions need not be identical. Equal values may be shown once.

Legend:
[1] = tested on: LRRK2 S935 phosphorylation; test: Western blot of LRRK2 biomarker site pS935 in transfected 293T cells; assay type: cell-based, human
Description: For all in cell kinase assays, after 48 hours, transfected cells were treated with either DMSO (control) or the indicated inhibitors for 4 hours at 37°C and 5% CO2. Following treatments, cells were washed three times with ice cold PBS. Cells were then lysed in ice cold radioimmunoprecipitation assay (RIPA) lysis buffer [50 mM tris (pH 8.0), 150 mM NaCl, 1% Triton X-100, 0.1% SDS, 0.5% sodium deoxycholate, and 1 mM DTT] in the presence of complete mini EASYpack protease inhibitor cocktail and the PhosSTOP EASYpack phosphatase inhibitor cocktail (Roche). Resuspended and lysed cells were clarified by centrifugation at 13,000g for 15 min at 4°C. NuPAGE LDS Sample Buffer (1×) and NuPAGE Sample Reducing Agent (1×; Invitrogen) were added to the clarified supernatants, and the samples were boiled at 95°C for 5 min and spun down at 13,000g for 10 min. For Western blotting, 15 μl of sample was loaded into a NuPAGE 4 to 12% gradient bis-tris gel (Invitrogen) and run at 120 V for 75 min before transfer to polyvinylidene difluoride transfer membrane (0.45-μm pore size, Millipore) for 240 min at 80 V at 4°C. The membrane was blocked in 5% milk in 1× Tris-buffered saline (TBS) [20 mM tris (pH 8.0) and 150 mM NaCl] for 1 hour shaking at room temperature. Primary antibodies [monoclonal rabbit anti-LRRK2 (Abcam, ab133474; RRID: AB_2713963), polyclonal rabbit anti-LRRK1 (Abcam, ab228666), monoclonal rabbit anti-LRRK2 phospho-S935 (Abcam, ab133450; RRID: AB_2732035), monoclonal rabbit anti-Rab8a phospho-T72 (Abcam, ab230260; RRID: AB_2814988), monoclonal rabbit anti-Rab7 phospho-S72 (Abcam, ab302494; RRID: AB_2933985), monoclonal rabbit anti–glyceraldehyde-3-phosphate dehydrogenase (GAPDH; Cell Signalling Technology, 2118; RRID: AB_561053), and monoclonal mouse anti-GFP (Santa Cruz Biotechnology, sc-9996; RRID: AB_627695)] were diluted in 5% milk in TBS and incubated with membrane for 16 hours at 4°C. Following incubation, membranes were washed three times with 1× TBS-T [20 mM tris (pH 8.0), 150 mM NaCl, and 0.1% Tween 20] before incubation with IRDye 680RD goat anti-rabbit IgG (LI-COR, 926-68071; RRID: AB_10956166) and IRDye 800CW goat anti-mouse IgG (LI-COR, 926-32210; RRID: AB_621842) secondary antibodies in 5% milk in 1× TBS for 1 hour at room temperature. Membranes were then washed three times in 1× TBS-T before imaging on Li-COR Odyssey CLx controlled by Imaging Studio software (www.licorbio.com/image-studio, RRID:SCR_015795). Image processing and quantification were performed in ImageJ version 2.14.0 (National Institutes of Health; https://imagej.net/, RRID:SCR_003070). The signal intensity of each band was assessed using the Analyze>Gels tool. The band intensity for phosphorylated LRRK2 was measured and compared to total LRRK2 levels (run under identical conditions on a separate gel). Band intensity for phosphorylated Rab7 or Rab8a was measured and compared against total GFP-Rab7 or GFP-Rab8a (using anti-GFP antibody) and LRRK1/LRRK2 levels as appropriate. Comparative statistical analysis of phosphorylation levels was analyzed using a one-way analysis of variance (ANOVA) and corrected using Tukey’s multiple comparisons test in GraphPad Prism 10 (www.graphpad.com/, RRID:SCR_002798). (For current step-by-step protocol for LRRK transfection and Western blotting, see dx.doi.org/10.17504/protocols.io.kxygx9bozg8j/v1.)

LRRK2^KW = target: T1, LRRK2^KW (Homo sapiens, UniProt Q5S007); test: DSF thermal stabilization of LRRK2^KW; assay type: binding; details: DSF, LRRK2^KW, 10 μM inhibitor
T1 construct: LRRK2 R1847 to E2527; His6-Z-tag (TEV cleavable) (N, cleaved yes); host or cells: Sf9 insect cells (baculovirus)
T1 sequence (Q5S007 1847-2527): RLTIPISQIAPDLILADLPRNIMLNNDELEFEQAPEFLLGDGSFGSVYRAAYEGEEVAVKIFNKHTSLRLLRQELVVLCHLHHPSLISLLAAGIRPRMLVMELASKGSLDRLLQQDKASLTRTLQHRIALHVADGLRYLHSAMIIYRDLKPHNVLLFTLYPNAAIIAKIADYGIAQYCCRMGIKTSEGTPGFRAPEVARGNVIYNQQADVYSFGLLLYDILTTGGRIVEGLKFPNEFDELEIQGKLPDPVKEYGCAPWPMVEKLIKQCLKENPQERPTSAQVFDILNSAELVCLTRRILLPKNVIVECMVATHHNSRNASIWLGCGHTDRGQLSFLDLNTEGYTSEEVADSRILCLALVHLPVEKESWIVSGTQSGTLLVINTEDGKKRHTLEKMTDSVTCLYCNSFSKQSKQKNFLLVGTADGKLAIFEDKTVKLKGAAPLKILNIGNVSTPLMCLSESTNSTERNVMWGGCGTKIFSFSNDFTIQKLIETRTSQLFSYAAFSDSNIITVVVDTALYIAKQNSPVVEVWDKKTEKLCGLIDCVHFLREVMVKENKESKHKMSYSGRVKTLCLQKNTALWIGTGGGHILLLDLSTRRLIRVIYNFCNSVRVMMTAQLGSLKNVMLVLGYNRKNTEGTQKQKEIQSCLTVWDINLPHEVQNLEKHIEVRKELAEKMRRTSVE
Outline: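 DSF on 4 μM LRRK2^KW in 20 mM Hepes pH 7.4, 150 mM NaCl, 0.5 mM TCEP, 0.5% glycerol, 20 μM GDP, 2.5 mM MgCl2 with SYPRO Orange; inhibitor at 10 μM. Tm was taken as the minimum of the first derivative of fluorescence versus temperature, relative to control.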

LRRK2^RCKW = target: T2, LRRK2^RCKW (Homo sapiens, UniProt Q5S007); test: Biochemical LRRK2 activity assay (PhosphoSense, AssayQuant SOX peptide AQT0615); details: normalized to 0% (no kinase) and 100% (no inhibitor) control, two singlicate columns per compound
T2 construct: LRRK2 R1327 to E2527; His6-Z-tag (TEV cleavable) (N, cleaved yes); host or cells: Sf9 insect cells (baculovirus)
T2 sequence (Q5S007 1327-2527): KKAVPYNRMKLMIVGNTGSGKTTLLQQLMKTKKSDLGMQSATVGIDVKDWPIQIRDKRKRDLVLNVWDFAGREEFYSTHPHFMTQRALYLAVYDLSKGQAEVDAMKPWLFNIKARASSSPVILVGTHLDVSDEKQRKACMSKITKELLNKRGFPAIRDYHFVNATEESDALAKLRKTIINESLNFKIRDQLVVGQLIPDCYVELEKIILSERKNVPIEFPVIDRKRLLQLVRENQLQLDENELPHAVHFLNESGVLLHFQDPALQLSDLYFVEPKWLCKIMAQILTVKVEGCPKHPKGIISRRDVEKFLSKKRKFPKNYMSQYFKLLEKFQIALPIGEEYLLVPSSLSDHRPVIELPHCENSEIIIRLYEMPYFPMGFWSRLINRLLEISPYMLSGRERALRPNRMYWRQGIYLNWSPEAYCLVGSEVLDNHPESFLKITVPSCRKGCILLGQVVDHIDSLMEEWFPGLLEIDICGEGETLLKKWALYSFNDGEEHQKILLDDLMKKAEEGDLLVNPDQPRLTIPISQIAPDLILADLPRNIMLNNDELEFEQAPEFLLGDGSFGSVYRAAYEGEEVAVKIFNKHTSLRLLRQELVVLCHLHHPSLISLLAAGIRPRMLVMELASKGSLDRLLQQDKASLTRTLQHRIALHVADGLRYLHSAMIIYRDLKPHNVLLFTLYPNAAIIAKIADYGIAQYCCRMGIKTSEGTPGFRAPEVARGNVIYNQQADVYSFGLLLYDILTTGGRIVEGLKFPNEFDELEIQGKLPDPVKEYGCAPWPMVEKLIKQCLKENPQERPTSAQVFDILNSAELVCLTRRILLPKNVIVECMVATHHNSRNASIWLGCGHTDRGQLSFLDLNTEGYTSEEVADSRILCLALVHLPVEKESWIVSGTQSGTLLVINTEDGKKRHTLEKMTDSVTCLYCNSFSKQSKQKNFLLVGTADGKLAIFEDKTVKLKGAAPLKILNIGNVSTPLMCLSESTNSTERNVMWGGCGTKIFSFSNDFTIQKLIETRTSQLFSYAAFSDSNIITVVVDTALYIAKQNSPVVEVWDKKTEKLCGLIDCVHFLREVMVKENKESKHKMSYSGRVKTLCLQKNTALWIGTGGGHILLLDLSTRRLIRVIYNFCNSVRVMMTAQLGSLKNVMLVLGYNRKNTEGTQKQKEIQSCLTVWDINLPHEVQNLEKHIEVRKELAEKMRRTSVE
Description: Two wells per compound were used as 0% (without protein and compound) and 100% (without compound) control. […] The 0% control wells were filled with 10 μl of pure reaction buffer. With the ECHO, 5 nl of 100 mM ATP was pipetted into each well, the plates were centrifuged at 1500g for 2 min, and the reaction was incubated at room temperature for 4 hours. The fluorescence of the SOX-peptide after 360-nm excitation was measured at 487-nm emission with a PHERAstar plate reader (BMG Labtech). The IC50 values were calculated from a nonlinear regression of the log[inhibitor] versus the normalized response with GraphPad Prism 8 (www.graphpad.com/, RRID:SCR_002798).

Row | Compound | pS935 LRRK2/LRRK2 normalized to DMSO, Mean ([1]; 500 nM, 4 h, 3 replicates) | pS935 LRRK2/LRRK2 normalized to DMSO ([1]; 500 nM, 4 h, individual Western blots) | effect on phosphorylation of LRRK2 S935 ([1]; 293T cells, MLi-2 500 nM) | ∆Tm (K) (LRRK2^KW) | normalized response (LRRK2 activity) (LRRK2^RCKW; log[inhibitor(mol)] -4.82391) | normalized response (LRRK2 activity) (LRRK2^RCKW; log[inhibitor(mol)] -5.12494) | normalized response (LRRK2 activity) (LRRK2^RCKW; log[inhibitor(mol)] -5.60206) | normalized response (LRRK2 activity) (LRRK2^RCKW; log[inhibitor(mol)] -6.30103) | normalized response (LRRK2 activity) (LRRK2^RCKW; log[inhibitor(mol)] -6.90309) | normalized response (LRRK2 activity) (LRRK2^RCKW; log[inhibitor(mol)] -7.30103) | normalized response (LRRK2 activity) (LRRK2^RCKW; log[inhibitor(mol)] -8.09691) | normalized response (LRRK2 activity) (LRRK2^RCKW; log[inhibitor(mol)] -8.61979) | normalized response (LRRK2 activity) (LRRK2^RCKW; log[inhibitor(mol)] -9.09691) | normalized response (LRRK2 activity) (LRRK2^RCKW; log[inhibitor(mol)] -9.39794)
1 | C[C@@H]1CN(c2cc(-c3n[nH]c4ccc(OC5(C)CC5)cc34)ncn2)C[C@H](C)O1 [MLi-2, reference compound] | 0.05291 | 0.09836 and 0.02387 and 0.03651 | almost complete dephosphorylation |  |  |  |  |  |  |  |  |  |  | 
2 | Cn1cc(-c2c[nH]c3ncnc(N4CCOCC4)c23)cc1C#N [PF-360, reference compound] |  |  |  | 14.0 ± 0.7 | -6.35% and -14.8637% | -13.9757% and -14.0596% | -14.9079% and -13.9094% | -16.2775% and -13.8122% | -15.2172% and -15.9196% | -14.8814% and -10.0789% | -1.676% and 1.585% | 61.433% and 54.956% | 90.2569% and 81.7741% | 97.0785% and 81.4958%
